Values joined by “and” are separate entries in the source; they are usually repeats but may differ in a detail not shown here. Identical values can stand only once. Like-named read-outs stand apart in the source and are kept apart here.
Columns and labels:
His-tagged BCL-2 = molecular target: T1, His-tagged BCL-2 (Homo sapiens, UniProt P10415); test: AlphaScreen competitive binary binding, BCL-2 (biotin-BIM peptide); conditions: for Alpha signal normalised to Maximum/Minimum (inhibition): in % (unit assumed)
T1 construct: purchased Sigma-Aldrich SRP0186
Method: (§1) The reagents were diluted in a buffer containing 250 mM HEPES pH 7.5, 1 M NaCl, 1% BSA, and 0.05% Tween-80. His-tagged BCL-xL (0.5 nM, Cat. No. SRP0187, Sigma-Aldrich) or BCL-2 (1 nM, Cat. No. SRP0186, Sigma-Aldrich) were incubated with serial diluted 753a or 753b and 2 nM biotin-tagged BAD (biotin-[…] amino-terminal, AnaSpec, for BCL-xL) or 10 nM BIM peptides (biotin-[…] N-terminal, AnaSpec, for BCL-2) to a final volume of 40 µl in a 96-well PCR plate. […] After incubation for 2 h, 5 µl 6× His-acceptor beads (Cat. No. AL128M, PerkinElmer) were added to each well at 20 µg/ml final concentration and incubated for 1 h. Then 5 µl streptavidin-donor beads were added (Cat. No. 6760002, PerkinElmer) to each well at 20 µg/ml final concentration and incubated for 45 min. At the end of the incubation period, 17 µl of each sample was transferred in adjacent wells of 384-well proxy plate (Cat. No. 6008280, PerkinElmer). The plate was scanned using the Alpha program on Biotek’s Synergy Neo2 multimode plate reader. The inhibition constant (Ki) was calculated using the non-linear regression, one site, competitive binding, Fit Ki function on GraphPad Prism 9 software, based on experimentally determined dissociation constant (Kd) for each protein–peptide pair.

His-tagged BCL-xL = molecular target: T2, His-tagged BCL-xL (Homo sapiens, UniProt Q07817); test: AlphaScreen competitive binary binding, BCL-xL (biotin-BAD peptide)
T2 construct: purchased Sigma-Aldrich SRP0187
Method: as §1

T2 sequence (Q07817 whole entry): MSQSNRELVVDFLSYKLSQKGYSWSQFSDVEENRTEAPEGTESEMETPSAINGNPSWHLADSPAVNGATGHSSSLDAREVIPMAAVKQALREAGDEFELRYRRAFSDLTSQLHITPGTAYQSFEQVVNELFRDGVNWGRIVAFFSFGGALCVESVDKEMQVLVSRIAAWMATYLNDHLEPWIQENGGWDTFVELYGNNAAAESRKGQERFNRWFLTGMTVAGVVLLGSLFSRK
T1 sequence (P10415 whole entry): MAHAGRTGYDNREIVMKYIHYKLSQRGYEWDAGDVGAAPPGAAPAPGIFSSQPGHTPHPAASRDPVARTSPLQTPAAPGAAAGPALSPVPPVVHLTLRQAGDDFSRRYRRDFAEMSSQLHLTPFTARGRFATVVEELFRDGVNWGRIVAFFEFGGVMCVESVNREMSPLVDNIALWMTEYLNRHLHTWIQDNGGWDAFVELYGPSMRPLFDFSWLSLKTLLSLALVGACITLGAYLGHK

CC1(C)CCC(c2ccc(Cl)cc2)=C(CN2CCN(c3ccc(C(=O)NS(=O)(=O)c4ccc(N[C@H](CCN5CCOCC5)CSc5ccccc5)c(S(=O)(=O)C(F)(F)F)c4)cc3)CC2)C1 [ABT263, navitoclax]
Alpha signal normalised to Maximum/Minimum (inhibition) (His-tagged BCL-2; BCL-2 Rep-1, 0.000305176 uM, 0.000305176 µM): 59.5965 | inhibition at 0.000305176 µM (His-tagged BCL-2; BCL-2 Rep-1, 0.000305176 uM, read-out: Alpha signal normalised to Maximum/Minimum (inhibition)): 58.7% | Alpha signal normalised to Maximum/Minimum (inhibition) (His-tagged BCL-2; BCL-2 Rep-1, 0.0012207 uM, 0.0012207 µM): 60.0938 | inhibition at 0.0012207 µM (His-tagged BCL-2; BCL-2 Rep-1, 0.0012207 uM, read-out: Alpha signal normalised to Maximum/Minimum (inhibition)): 49.1% | Alpha signal normalised to Maximum/Minimum (inhibition) (His-tagged BCL-2; BCL-2 Rep-1, 0.00488281 uM, 0.00488281 µM): 80.812 | inhibition at 0.00488281 µM (His-tagged BCL-2; BCL-2 Rep-1, 0.00488281 uM, read-out: Alpha signal normalised to Maximum/Minimum (inhibition)): 82.4% | Alpha signal normalised to Maximum/Minimum (inhibition) (His-tagged BCL-2; BCL-2 Rep-1, 0.0195312 uM, 0.0195312 µM): 99.3807 | inhibition at 0.0195312 µM (His-tagged BCL-2; BCL-2 Rep-1, 0.0195312 uM, read-out: Alpha signal normalised to Maximum/Minimum (inhibition)): 98.6% | Alpha signal normalised to Maximum/Minimum (inhibition) (His-tagged BCL-2; BCL-2 Rep-1, 0.078125 uM, 0.078125 µM): 99.9974 | inhibition at 0.078125 µM (His-tagged BCL-2; BCL-2 Rep-1, 0.078125 uM, read-out: Alpha signal normalised to Maximum/Minimum (inhibition)): 100% | Alpha signal normalised to Maximum/Minimum (inhibition) (His-tagged BCL-2; BCL-2 Rep-1, 0.3125 uM, 0.3125 µM): 99.341 | inhibition at 0.3125 µM (His-tagged BCL-2; BCL-2 Rep-1, 0.3125 uM, read-out: Alpha signal normalised to Maximum/Minimum (inhibition)): 98.9% | Alpha signal normalised to Maximum/Minimum (inhibition) (His-tagged BCL-2; BCL-2 Rep-1, 1.25 uM, 1.25 µM): 100.024 | inhibition at 1.25 µM (His-tagged BCL-2; BCL-2 Rep-1, 1.25 uM, read-out: Alpha signal normalised to Maximum/Minimum (inhibition)): 99% | Alpha signal normalised to Maximum/Minimum (inhibition) (His-tagged BCL-2; BCL-2 Rep-1, 5 uM, 5 µM): 98.7813 | inhibition at 5 µM (His-tagged BCL-2; BCL-2 Rep-1, 5 uM, read-out: Alpha signal normalised to Maximum/Minimum (inhibition)): 99% | Alpha signal (raw counts) (His-tagged BCL-2; BCL-2 Rep-2, 0.00488281 uM): 125701 and 136831 | Alpha signal normalised to Maximum/Minimum (inhibition) (His-tagged BCL-2; BCL-2 Rep-2, 0.0195312 uM, 0.0195312 µM): 98.383 | inhibition at 0.0195312 µM (His-tagged BCL-2; BCL-2 Rep-2, 0.0195312 uM, read-out: Alpha signal normalised to Maximum/Minimum (inhibition)): 98.1% | Alpha signal normalised to Maximum/Minimum (inhibition) (His-tagged BCL-2; BCL-2 Rep-2, 0.078125 uM, 0.078125 µM): 99.1744 | inhibition at 0.078125 µM (His-tagged BCL-2; BCL-2 Rep-2, 0.078125 uM, read-out: Alpha signal normalised to Maximum/Minimum (inhibition)): 98.7% | Alpha signal normalised to Maximum/Minimum (inhibition) (His-tagged BCL-2; BCL-2 Rep-2, 0.3125 uM, 0.3125 µM): 99.3426 | inhibition at 0.3125 µM (His-tagged BCL-2; BCL-2 Rep-2, 0.3125 uM, read-out: Alpha signal normalised to Maximum/Minimum (inhibition)): 98.9% | Alpha signal normalised to Maximum/Minimum (inhibition) (His-tagged BCL-2; BCL-2 Rep-2, 1.25 uM, 1.25 µM): 99.8148 | inhibition at 1.25 µM (His-tagged BCL-2; BCL-2 Rep-2, 1.25 uM, read-out: Alpha signal normalised to Maximum/Minimum (inhibition)): 97.9% | Alpha signal normalised to Maximum/Minimum (inhibition) (His-tagged BCL-2; BCL-2 Rep-2, 5 uM, 5 µM): 100.138 | inhibition at 5 µM (His-tagged BCL-2; BCL-2 Rep-2, 5 uM, read-out: Alpha signal normalised to Maximum/Minimum (inhibition)): 98% | Alpha signal (raw counts) (His-tagged BCL-2; BCL-2 Rep-2, plate row C, 1.25 uM): 32515 and 16642 | Alpha signal (raw counts) (His-tagged BCL-2; BCL-2 Rep-2, plate row D, 0.3125 uM): 24362 and 20560 | Alpha signal (raw counts) (His-tagged BCL-2; BCL-2 Rep-2, plate row E, 0.078125 uM): 25987 and 21955 | Alpha signal (raw counts) (His-tagged BCL-2; BCL-2 Rep-2, plate row F, 0.0195312 uM): 31255 and 28520 | Alpha signal (raw counts) (His-tagged BCL-2; BCL-2 Rep-2, plate row H, 0.0012207 uM): 409647 and 386712 | Alpha signal (raw counts) (His-tagged BCL-2; BCL-2 Rep-2, plate row I, 0.000305176 uM): 513586 and 565907 | Alpha signal (raw counts) (His-tagged BCL-2; BCL-2 Rep-2, plate row J, 7.62939e-5 uM): 711623 and 736033 | Alpha signal (raw counts) (His-tagged BCL-2; BCL-2 Rep-2, plate row K, 1.90735e-5 uM): 598210 and 675191 | Alpha signal normalised to Maximum/Minimum (inhibition) (His-tagged BCL-xL; BCL-xL Rep-1, 0.000305176 uM, 0.000305176 µM): 28.4807 | inhibition at 0.000305176 µM (His-tagged BCL-xL; BCL-xL Rep-1, 0.000305176 uM, read-out: Alpha signal normalised to Maximum/Minimum (inhibition)): 32% | Alpha signal normalised to Maximum/Minimum (inhibition) (His-tagged BCL-xL; BCL-xL Rep-1, 0.0012207 uM, 0.0012207 µM): 28.8475 | inhibition at 0.0012207 µM (His-tagged BCL-xL; BCL-xL Rep-1, 0.0012207 uM, read-out: Alpha signal normalised to Maximum/Minimum (inhibition)): 27.8% | Alpha signal normalised to Maximum/Minimum (inhibition) (His-tagged BCL-xL; BCL-xL Rep-1, 0.00488281 uM, 0.00488281 µM): 50.9941 | inhibition at 0.00488281 µM (His-tagged BCL-xL; BCL-xL Rep-1, 0.00488281 uM, read-out: Alpha signal normalised to Maximum/Minimum (inhibition)): 46.4% | Alpha signal normalised to Maximum/Minimum (inhibition) (His-tagged BCL-xL; BCL-xL Rep-1, 0.0195312 uM, 0.0195312 µM): 73.9595 | inhibition at 0.0195312 µM (His-tagged BCL-xL; BCL-xL Rep-1, 0.0195312 uM, read-out: Alpha signal normalised to Maximum/Minimum (inhibition)): 70.8% | Alpha signal normalised to Maximum/Minimum (inhibition) (His-tagged BCL-xL; BCL-xL Rep-1, 0.078125 uM, 0.078125 µM): 89.8384 | inhibition at 0.078125 µM (His-tagged BCL-xL; BCL-xL Rep-1, 0.078125 uM, read-out: Alpha signal normalised to Maximum/Minimum (inhibition)): 90.1% | Alpha signal normalised to Maximum/Minimum (inhibition) (His-tagged BCL-xL; BCL-xL Rep-1, 0.3125 uM, 0.3125 µM): 98.7717 | inhibition at 0.3125 µM (His-tagged BCL-xL; BCL-xL Rep-1, 0.3125 uM, read-out: Alpha signal normalised to Maximum/Minimum (inhibition)): 97.2% | Alpha signal normalised to Maximum/Minimum (inhibition) (His-tagged BCL-xL; BCL-xL Rep-1, 1.25 uM, 1.25 µM): 99.2115 | inhibition at 1.25 µM (His-tagged BCL-xL; BCL-xL Rep-1, 1.25 uM, read-out: Alpha signal normalised to Maximum/Minimum (inhibition)): 98.7% | Alpha signal normalised to Maximum/Minimum (inhibition) (His-tagged BCL-xL; BCL-xL Rep-1, 5 uM, 5 µM): 98.674 | inhibition at 5 µM (His-tagged BCL-xL; BCL-xL Rep-1, 5 uM, read-out: Alpha signal normalised to Maximum/Minimum (inhibition)): 99.7% | Alpha signal (raw counts) (His-tagged BCL-xL; BCL-xL Rep-1, plate row B, 5 uM): 24284 and 38579 | Alpha signal (raw counts) (His-tagged BCL-xL; BCL-xL Rep-1, plate row C, 1.25 uM): 38335 and 30879 | Alpha signal (raw counts) (His-tagged BCL-xL; BCL-xL Rep-1, plate row D, 0.3125 uM): 59200 and 37180 | Alpha signal (raw counts) (His-tagged BCL-xL; BCL-xL Rep-1, plate row E, 0.078125 uM): 160796 and 165155 | Alpha signal (raw counts) (His-tagged BCL-xL; BCL-xL Rep-1, plate row F, 0.0195312 uM): 437862 and 392628 | Alpha signal (raw counts) (His-tagged BCL-xL; BCL-xL Rep-1, plate row G, 0.00488281 uM): 787377 and 721620 | Alpha signal (raw counts) (His-tagged BCL-xL; BCL-xL Rep-1, plate row H, 0.0012207 uM): 1053850 and 1038882 | Alpha signal (raw counts) (His-tagged BCL-xL; BCL-xL Rep-1, plate row I, 0.000305176 uM): 993971 and 1044138 | Alpha signal (raw counts) (His-tagged BCL-xL; BCL-xL Rep-1, plate row J, 7.62939e-5 uM): 1100587 and 1144199 | Alpha signal (raw counts) (His-tagged BCL-xL; BCL-xL Rep-1, plate row K, 1.90735e-5 uM): 1236998 and 1302696 | Alpha signal (raw counts) (His-tagged BCL-xL; BCL-xL Rep-2, 7.62939e-5 uM): 1461205 and 1360749 | Alpha signal normalised to Maximum/Minimum (inhibition) (His-tagged BCL-xL; BCL-xL Rep-2, 0.000305176 uM, 0.000305176 µM): 14.6957 | inhibition at 0.000305176 µM (His-tagged BCL-xL; BCL-xL Rep-2, 0.000305176 uM, read-out: Alpha signal normalised to Maximum/Minimum (inhibition)): 13% | Alpha signal normalised to Maximum/Minimum (inhibition) (His-tagged BCL-xL; BCL-xL Rep-2, 0.0012207 uM, 0.0012207 µM): 16.3472 | inhibition at 0.0012207 µM (His-tagged BCL-xL; BCL-xL Rep-2, 0.0012207 uM, read-out: Alpha signal normalised to Maximum/Minimum (inhibition)): 24%
